Experimental data: US20130287807A1, “COMPOUNDS FOR TREATING SYMPTOMS ASSOCIATED WITH PARKINSON'S DISEASE” (priority 2008, published 2013)

How the values were obtained:
[1] = test system: monoclonal antibody MV-002; experiment: In vitro binding assay (ELISA), BSA-coupled peptides, parental antibody MV-002; set-up: species or system C57/B16 mice; settings: Table 1 (MV-002); peptide-BSA on plate, compared to original epitope
Protocol: (§1) Peptides derived from Phage Display as well as variants thereof were coupled to BSA and bound to ELISA plates (1 μM; as indicated in the respective figures) and subsequently incubated with the monoclonal antibody that was used for the screening procedure to analyse binding capacity of identified peptides.
Legend to Table 1: the binding capacity is coded by the following binding code: 1:X describes the dilution factor of the parental AB. Ac- . . . indicates acetylated AA.

[2] = test system: monoclonal antibody MV-002; experiment: In vitro inhibition assay (ELISA), MV-002 binding to original epitope; set-up: species or system C57/B16 mice; settings: Table 2 (MV-002); OD at 5 ug peptide compared to original peptide
Protocol: (§2) Different amounts of peptides (concentrations ranging from 10 μg to 0.08 μg; serial dilutions; for MV-002: concentrations ranging from 5 μg to 0.03 μg; serial dilutions), derived from Phage Display were incubated with the monoclonal antibody that was used for the screening procedure. Peptides diminishing subsequent binding of the antibody to the original epitope coated on ELISA plates were considered as inhibiting in this assay.
(§3) Legend to Table 2: the inhibition capacity is coded by the following code: Weak inhibition means more peptide is required to lower AB binding than with the original epitope; strong inhibition means similar peptide amounts are required for mimotope and original epitope for lowering AB binding. Mimotopes are compared to the original peptide as standard. OD at 5 ug peptide used in the assay is used to calculate the competition capacity compared to original peptide.

[3] = test system: Aβ/truncated/modified forms; experiment: In vivo characterisation of mimotopes: detection of Aβ/truncated/modified forms; set-up: species or system C57/B16 mice; key: +: All peptides listed in table 4 mount specific immune reactions against full length and/or truncated and modified forms of Aβ or fragments thereof; settings: Table 4, MV-002 derived mimotopes
Protocol: (§4) Inhibiting as well as non-inhibiting peptides were coupled to KLH and injected into mice (wildtype C57/B16 mice; subcutaneous injection into the flank) together with an appropriate adjuvant (aluminium hydroxide). Animals were vaccinated 3-6 times in biweekly intervals and sera were taken biweekly as well. Titers to injected peptides, as well as to an irrelevant peptide were determined with every serum. Furthermore, titers against the recombinant human Aβ protein, and against original peptides were determined respectively. In general sera were analysed by reaction against peptides coupled to Bovine Serum Albumin (BSA) and recombinant full length proteins which were immobilised on ELISA plates. Titers were determined using anti mouse IgG specific antibodies. For detailed results see FIGS. 15, 16 and 17 respectively and FIGS. 23, 24 and 25 respectively.
(§5) Female C57/b16 mice, 5-6 mice per group, were subcutaneously immunized with 30 μg peptide coupled to KLH. Control groups were administered original epitope-KLH conjugates respectively. As adjuvant alum was used (always 1 mg per mouse). […] The in vitro ELISA assay to determine the antibody titer was performed with sera of single mice after each vaccination in a two week interval (see FIGS. 15 and 16 respectively). The wells of the ELISA plate were coated with mimotope-BSA conjugate and an irrelevant peptide-BSA conjugate (negative control). The positive control was performed by reaction of the parental antibody with the respective mimotope-BSA conjugate. The detection was performed with anti-mouse IgG. Additionally, recombinant proteins were immobilised on ELISA plates and sera reacted accordingly. FIGS. 15 to 17 show representative examples for assays used to characterise mimotopes in vivo.
as §5, with “FIGS. 25” for “FIGS. 15”, “and 26” for “and 16”, “respectively). Titers were calculated as OD max/2 in all figures shown.” for “respectively).”, “FIGS. 23, 24 and 25” for “FIGS. 15 to 17”

[4] = test system: monoclonal antibody MV-001; experiment: In vitro binding assay (ELISA), BSA-coupled peptides, parental antibody MV-001; set-up: species or system C57/B16 mice; settings: Table 1C; peptide-BSA on plate, compared to original epitope
Protocol: as §1
Legend to Table 1C: the binding capacity is coded by the following binding code: 1:X describes the dilution factor of the parental AB

[5] = test system: monoclonal antibody MV-001; experiment: In vitro inhibition assay (ELISA), MV-001 binding to original epitope; set-up: species or system C57/B16 mice; settings: Table 2C; OD at 10 ug peptide compared to original peptide
Protocol: as §2
as §3, with “2C:” for “2:”, “10” for “5”

[6] = test system: Aβ/truncated/modified forms; experiment: In vivo characterisation of mimotopes: detection of Aβ/truncated/modified forms; set-up: species or system C57/B16 mice; key: +: All peptides listed in Table 4 mount specific immune reactions against full length and/or truncated and modified forms of Aβ or fragments thereof; settings: Table 4, MV-001 derived mimotopes
Protocol: as §4, §5
as §5, with “FIGS. 25” for “FIGS. 15”, “and 26” for “and 16”, “respectively). Titers were calculated as OD max/2 in all figures shown.” for “respectively).”, “FIGS. 23, 24 and 25” for “FIGS. 15 to 17”

[7] = molecular target: monoclonal antibody MV-002; experiment: ELISA on peptide-BSA; code 1 = weak binding, OD halfmax 1:<40000

Row | Molecule | Binding Capacity [4] | OD halfmax dilution factor of the parental antibody (1:X) (dilutionfactor(1:x)) [7] | Inhibition Capacity [5] | Detection of Aβ/truncated/modified forms [6] | other results
1 | GEIQFGAC [p4699] |  |  |  |  | Binding Capacity [1]: 3 (strong binding :>320000); Inhibition Capacity [2]: 1 (Weaker than original epitope (OD of peptide below 4, 6 times of original peptide)); Detection of Aβ/truncated/modified forms [3]: +
2 | SGEYVFHC [p4404] |  |  |  |  | Binding Capacity [1]: 1 (weak binding :<40000); Detection of Aβ/truncated/modified forms [3]: +
3 | GELWFPC [p4673] |  |  |  |  | Binding Capacity [1]: 3 (strong binding :>320000); Inhibition Capacity [2]: 1 (Weaker than original epitope (OD of peptide below 4, 6 times of original peptide)); Detection of Aβ/truncated/modified forms [3]: +
4 | SQFRHYC [p4385] | 2 (medium binding :4000-20000) |  | 1 (Weaker than original epitope (OD of 10 ug peptide below 3 times of original peptide)) | + | 
5 | SGQLKFPC [p4413] |  |  |  |  | Binding Capacity [1]: 1 (weak binding :<40000); Detection of Aβ/truncated/modified forms [3]: +
6 | SGQIWFRC [p4414] |  |  |  |  | Binding Capacity [1]: 1 (weak binding :<40000); Detection of Aβ/truncated/modified forms [3]: +
7 | THQRLWFC [p4693] |  |  |  |  | Binding Capacity [1]: 3 (strong binding :>320000); Detection of Aβ/truncated/modified forms [3]: +
8 | SGEIHFNC [p4415] |  |  |  |  | Binding Capacity [1]: 1 (weak binding :<40000); Detection of Aβ/truncated/modified forms [3]: +
9 | ILFRHGC [p4390] | 3 (strong binding :>20000) |  | 1 (Weaker than original epitope (OD of 10 ug peptide below 3 times of original peptide)) | + | 
10 | SEFKHGC [p4381] | 3 (strong binding :>20000) |  | 1 (Weaker than original epitope (OD of 10 ug peptide below 3 times of original peptide)) | + | 
11 | TSVFRHC [p4383] | 3 (strong binding :>20000) |  | 1 (Weaker than original epitope (OD of 10 ug peptide below 3 times of original peptide)) | + | 
12 | GEIKFDHC [p4698] |  |  |  |  | Binding Capacity [1]: 3 (strong binding :>320000); Inhibition Capacity [2]: 2 (strong inhibition (as original epitope; OD of peptide below 2, 3 times of original peptide)); Detection of Aβ/truncated/modified forms [3]: +
13 | GEILFGMC [p4689] |  |  |  |  | Binding Capacity [1]: 3 (strong binding :>320000); Inhibition Capacity [2]: 1 (Weaker than original epitope (OD of peptide below 4, 6 times of original peptide))
14 | LMFRHNC [p4386] | 3 (strong binding :>20000) |  | 1 (Weaker than original epitope (OD of 10 ug peptide below 3 times of original peptide)) | + | 
15 | GEIRFGSC [p4696] |  |  |  |  | Binding Capacity [1]: 3 (strong binding :>320000); Detection of Aβ/truncated/modified forms [3]: +
16 | SGQIWFRC [p4414] |  | < 40000 |  |  | 
17 | KLPLFVMC [p4691] |  | < 40000 |  |  | 
18 | GQIWFISC [p4666] |  | < 40000 |  |  | 
19 | SHTRLYFC [p4403] |  | < 40000 |  |  | 
20 | SGEIHFNC [p4415] |  | < 40000 |  |  | 
21 | AIPLFVMC [p4682] |  | < 40000 |  |  | 
22 | SGQLKFPC [p4413] |  | < 40000 |  |  | 
23 | SGEYVFHC [p4404] |  | < 40000 |  |  | 

Second part, led by results:

Row | Binding Capacity [4] | OD halfmax dilution factor of the parental antibody (1:X) (dilutionfactor(1:x)) [7] | Molecule | Inhibition Capacity [5] | Detection of Aβ/truncated/modified forms [6] | other results
24 | 3 (strong binding :>20000) |  | TLHEFRHC [p4715] | 2 (strong inhibition (as original epitope; OD of 10 ug peptide below 2 times of original peptide)) | + | 
25 | 3 (strong binding :>20000) |  | TEFRHKAC [p4753] | 2 (strong inhibition (as original epitope; OD of 10 ug peptide below 2 times of original peptide)) | + | 
26 | 3 (strong binding :>20000) |  | THTDFRHC [p4725] | 1 (Weaker than original epitope (OD of 10 ug peptide below 3 times of original peptide)) | + | 
27 | 3 (strong binding :>20000) |  | QSEFKHWC [p4738] | 1 (Weaker than original epitope (OD of 10 ug peptide below 3 times of original peptide)) | + | 
28 | 3 (strong binding :>20000) |  | ELFKHHLC [p4714] |  | + | 
29 | 3 (strong binding :>20000) |  | SPNQFRHC [p4707] | 1 (Weaker than original epitope (OD of 10 ug peptide below 3 times of original peptide)) | + | 
30 | 3 (strong binding :>20000) |  | DEHPFRHC [p4730] | 1 (Weaker than original epitope (OD of 10 ug peptide below 3 times of original peptide)) | + | 
31 | 3 (strong binding :>20000) |  | YEFRHAQC [p4748] |  | + | 
32 | 3 (strong binding :>20000) |  | ADHDFRHC [p4740] | 1 (Weaker than original epitope (OD of 10 ug peptide below 3 times of original peptide)) | + | 
33 |  | < 40000 | QLPLFVLC [p4700] |  |  | 
34 |  | < 40000 | CGEIYFER [p4807] |  |  | 
35 |  | < 40000 | SGEIYFERC [p4805] |  |  | 
36 |  | < 40000 | AGEIYFERC [p4806] |  |  | 
37 |  | < 40000 | GTIFFRDC [p4692] |  |  | 
